The record followed here is patent publication US9657057B2, “Dipeptide and tripeptide epoxy ketone protease inhibitors” (Onyx Therapeutics, Inc., priority 2013, dated 2017).

Structures are written as SMILES. In brackets after ≈: the same amount, converted by molar mass.

A word on the solubility: it is how much of the substance goes into solution per volume. A higher solubility goes with a readily soluble substance. For orientation: IC50 means the concentration that inhibits the measured activity by half. A low value points to greater potency in that assay.

The nature of one data set: Solubility pH 7. Type of data set: physicochemical. The settings on record: pH 7, aqueous buffer.
A further data set concerns the target T1, β5 (Homo sapiens, UniProt P20618+P28074).
T1 construct: endogenous in cells; host or cells: MOLT-4
The data set can be described thus: ProCISE proteasome subunit assay, β5. Type of data set: biochemical. As for the experimental part:
(§1) This assay was used to assess the inhibitory activity against each of LMP2, LMP7, MECL1, β1, β2, and β5. Briefly, test compounds were serially diluted in DMSO at 100× concentration, then diluted to 10× in aqueous hypotonic lysis buffer. Lysate from the human acute lymphoblastic leukemia cell line, MOLT-4, was treated for 1 hour at 25° C. with compound at a final 1× concentration. […] Following this, lysate was denatured in guanidine hydrochloride, and subunits bound to probe were isolated with streptavidin-conjugated sepharose beads. Individual subunits were probed with subunit-specific primary antibodies, followed by HRP-conjugated secondary antibodies. A chemiluminescent substrate was used to generate signal associated with HRP binding, which was detected on a plate reader. Luminescent signal was normalized to protein content, then, percent activity calculated relative to DMSO-treated controls to generate IC50 curves.

In another data set the target is T2, LMP7 (Homo sapiens, UniProt P20618+P28062).
T2 construct: endogenous in cells; host or cells: MOLT-4
The data set can be described thus: ProCISE proteasome subunit assay, LMP7. The class given is biochemical. As to the method: as §1

In the case of `CC1=C(C(=O)N[C@H](C)C(=O)N[C@@H](Cc2c[nH]c3ccccc23)C(=O)N[C@@H](Cc2ccccc2)C(=O)[C@@]2(C)CO2)Cc2ccccc21` [Compound C-2003], the solubility in “Solubility pH 7” is 0.7 µg/mL (≈ 1.13 µM).

In turn, `CC1=C(C(=O)N[C@@H](C)C(=O)N[C@@H](Cc2c[nH]c3ccccc23)C(=O)N[C@@H](Cc2ccccc2)C(=O)[C@@]2(C)CO2)Cc2ccccc21` [Compound C-2004] yielded a solubility in “Solubility pH 7” of 1.9 µg/mL (≈ 3.07 µM).

Turning to `COc1ccc(C[C@H](NC(=O)[C@H](C)NC(C)=O)C(=O)N[C@@H](Cc2ccccc2)C(=O)[C@@]2(C)CO2)cc1` [Compound C-2005], the solubility in the data set “Solubility pH 7” is 735 µg/mL (≈ 1480 µM). In turn, `COC(=O)N[C@@H](C)C(=O)N[C@@H](Cc1ccc(OC)cc1)C(=O)N[C@@H](Cc1ccccc1)C(=O)[C@@]1(C)CO1` [Compound C-2009, Methyl ((S)-1-(((S)-3-(4-methoxyphenyl)-1-(((S)-1-((R)-2-methyloxiran-2-yl)-1-oxo-3-phenylpropan-2-yl)amino)-1-oxopropan-2-yl)amino)-1-oxopropan-2-yl)carbamate] showed a solubility in “Solubility pH 7” of 163 µg/mL (≈ 318 µM). Regarding `COc1ccc(C[C@H](NC(=O)[C@@H](CC(=O)OC(C)(C)C)NC(=O)OCc2ccccc2)C(=O)N[C@@H](Cc2ccccc2)C(=O)[C@@]2(C)CO2)cc1` [Compound C-2016, (R)-tert-Butyl 3-(((benzyloxy)carbonyl)amino)-4-(((S)-3-(4-methoxyphenyl)-1-(((S)-1-((R)-2-methyloxiran-2-yl)-1-oxo-3-phenylpropan-2-yl)amino)-1-oxopropan-2-yl)amino)-4-oxobutanoate], the figures for the half-maximal inhibitory concentration (IC50) against β5 (MOLT4 lysate Hu 1 h) and against LMP7 (MOLT4 lysate Hu 1 h) were 279 nM and 69.7 nM, respectively. As to `COc1ccc(C[C@H](NC(=O)[C@@H](CC(=O)O)NC(=O)OCc2ccccc2)C(=O)N[C@@H](Cc2ccccc2)C(=O)[C@@]2(C)CO2)cc1` [Compound C-2017, (R)-3-(((Benzyloxy)carbonyl)amino)-4-(((S)-3-(4-methoxyphenyl)-1-(((S)-1-((R)-2-methyloxiran-2-yl)-1-oxo-3-phenylpropan-2-yl)amino)-1-oxopropan-2-yl)amino)-4-oxobutanoic acid], the half-maximal inhibitory concentration (IC50) against β5 (MOLT4 lysate Hu 1 h) amounted to 129 nM; against LMP7 (MOLT4 lysate Hu 1 h) it was 37.2 nM. Turning to `CC1=C(C(=O)N[C@H](C)C(=O)N[C@@H](Cc2c[nH]c3ccccc23)C(=O)N[C@@H](CC2CCCC2)C(=O)[C@@]2(C)CO2)Cc2ccccc21` [Compound C-2047, N—((R)-1-(((S)-1-(((S)-3-cyclopentyl-1-((R)-2-methyloxiran-2-yl)-1-oxopropan-2-yl)amino)-3-(1H-indol-3-yl)-1-oxopropan-2-yl)amino)-1-oxopropan-2-yl)-3-methyl-1H-indene-2-carboxamide], the IC50 was found to be 1100 nM against β5 (MOLT4 lysate Hu 1 h) and 68.7 nM at LMP7 (MOLT4 lysate Hu 1 h). Besides, the solubility in “Solubility pH 7” worked out at 0.3 µg/mL (≈ 0.491 µM).

On to `COc1ccc(C[C@H](NC(=O)[C@H](C)NC(=O)C2=C(C)c3ccccc3C2)C(=O)N[C@@H](Cc2ccccc2)C(=O)[C@@]2(C)CO2)cc1` [Compound C-2049, N—((S)-1-(((S)-3-(4-methoxyphenyl)-1-(((S)-1-((R)-2-methyloxiran-2-yl)-1-oxo-3-phenylpropan-2-yl)amino)-1-oxopropan-2-yl)amino)-1-oxopropan-2-yl)-3-methyl-1H-indene-2-carboxamide], for which the values for the IC50 against β5 (ProCISE beta5 MOLT4 lysate Hu 1 h CONT: IC50 (nM)) and on LMP7 (ProCISE LMP7 MOLT4 lysate Hu 1 h CONT: IC50 (nM)) were 57.6 nM and 45.8 nM, respectively. The same molecule showed a solubility in “Solubility pH 7” of 0.8 µg/mL (≈ 1.31 µM).

In the case of `COc1ccc(C[C@H](NC(=O)[C@@H](C)NC(=O)CC(C)(C)O)C(=O)N[C@@H](Cc2ccc(C)cc2)C(=O)[C@H]2CO2)cc1` [Compound C-2053, 3-hydroxy-N—((R)-1-(((S)-3-(4-methoxyphenyl)-1-(((S)-1-((R)-oxiran-2-yl)-1-oxo-3-(p-tolyl)propan-2-yl)amino)-1-oxopropan-2-yl)amino)-1-oxopropan-2-yl)-3-methylbutanamide], the IC50 at β5 (MOLT4 lysate Hu 1 h) was found to be 5.27 nM; against LMP7 (MOLT4 lysate Hu 1 h) it was 1.82 nM. This molecule also showed a solubility in “Solubility pH 7” of 1260 µg/mL (≈ 2270 µM). For `C[C@@H](NC(=O)CC(C)(C)O)C(=O)N[C@@H](Cc1ccc(S(C)(=O)=O)cc1)C(=O)N[C@@H](CC1CCCC1)C(=O)[C@H]1CO1` [Compound C-2055, N—((R)-1-(((S)-1-(((S)-3-cyclopentyl-1-((R)-oxiran-2-yl)-1-oxopropan-2-yl)amino)-3-(4-(methylsulfonyl)phenyl)-1-oxopropan-2-yl)amino)-1-oxopropan-2-yl)-3-hydroxy-3-methylbutanamide] the same measures were 354 nM, 17.6 nM and 1970 µg/mL (≈ 3400 µM).

For `COc1ccc(C[C@H](NC(=O)[C@@H](C)NC(=O)C2=CCCC2)C(=O)N[C@@H](Cc2ccccc2)C(=O)[C@@]2(C)CO2)cc1` [Compound C-2058, N—((R)-1-(((S)-3-(4-methoxyphenyl)-1-(((S)-1-((R)-2-methyloxiran-2-yl)-1-oxo-3-phenylpropan-2-yl)amino)-1-oxopropan-2-yl)amino)-1-oxopropan-2-yl)cyclopent-1-enecarboxamide], the half-inhibitory concentration (IC50) on β5 (MOLT4 lysate Hu 1 h) stood at 4290 nM; on LMP7 (MOLT4 lysate Hu 1 h), 539 nM. The solubility in the data set “Solubility pH 7” was 45.4 µg/mL (≈ 82.9 µM). In “Solubility pH 7”, `COc1ccc(C[C@H](NC(=O)[C@@H](C)NC(=O)c2ccc3[nH]ncc3c2)C(=O)N[C@@H](CC2CCCC2)C(=O)[C@@]2(C)CO2)cc1` [Compound C-2061, N—((R)-1-(((S)-1-(((S)-3-cyclopentyl-1-((R)-2-methyloxiran-2-yl)-1-oxopropan-2-yl)amino)-3-(4-methoxyphenyl)-1-oxopropan-2-yl)amino)-1-oxopropan-2-yl)-1H-indazole-5-carboxamide] yielded a solubility of 26.3 µg/mL (≈ 44.6 µM). With `COc1ccc(C[C@H](NC(=O)[C@@H](C)NC(=O)c2ccc3[nH]cnc3c2)C(=O)N[C@@H](CC2CCCC2)C(=O)[C@@]2(C)CO2)cc1` [Compound C-2062, N—((R)-1-(((S)-1-(((S)-3-cyclopentyl-1-((R)-2-methyloxiran-2-yl)-1-oxopropan-2-yl)amino)-3-(4-methoxyphenyl)-1-oxopropan-2-yl)amino)-1-oxopropan-2-yl)-1H-benzo[d]imidazole-5-carboxamide], the solubility in “Solubility pH 7” is 56 µg/mL (≈ 95 µM). On to `COc1ccc(C[C@H](NC(=O)[C@@H](C)NC(=O)c2ccc3cn[nH]c3c2)C(=O)N[C@@H](CC2CCCC2)C(=O)[C@@]2(C)CO2)cc1` [Compound C-2063, N—((R)-1-(((S)-1-(((S)-3-cyclopentyl-1-((R)-2-methyloxiran-2-yl)-1-oxopropan-2-yl)amino)-3-(4-methoxyphenyl)-1-oxopropan-2-yl)amino)-1-oxopropan-2-yl)-1H-indazole-6-carboxamide], for which, in “Solubility pH 7”, the solubility came out at 21.4 µg/mL (≈ 36.3 µM). The same measure, in the same setting: as for `COc1ccc(C[C@H](NC(=O)[C@H](C)NC(=O)Cc2cnc(N)s2)C(=O)N[C@@H](CC2=CCCC2)C(=O)[C@@]2(C)CO2)cc1` [Compound C-2066, (S)-2-((S)-2-(2-(2-aminothiazol-5-yl)acetamido)propanamido)-N—((S)-3-(cyclopent-1-en-1-yl)-1-((R)-2-methyloxiran-2-yl)-1-oxopropan-2-yl)-3-(4-methoxyphenyl)propanamide], the figure is 43.6 µg/mL (≈ 74.7 µM). For the molecule `COc1ccc(C[C@H](NC(=O)[C@H](C)NC(=O)Cc2cnc(N(C)C)s2)C(=O)N[C@@H](CC2=CCCC2)C(=O)[C@@]2(C)CO2)cc1` [Compound C-2067, (S)—N—((S)-3-(cyclopent-1-en-1-yl)-1-((R)-2-methyloxiran-2-yl)-1-oxopropan-2-yl)-2-((S)-2-(2-(2-(dimethylamino)thiazol-5-yl)acetamido)propanamido)-3-(4-methoxyphenyl)propanamide], the solubility in the data set “Solubility pH 7” was 61.6 µg/mL (≈ 101 µM). Molecule `COc1ccc(C[C@H](NC(=O)[C@H](C)NC(=O)Cc2cnc(N3CCC3)s2)C(=O)N[C@@H](CC2=CCCC2)C(=O)[C@@]2(C)CO2)cc1` [Compound C-2068, (S)-2-((S)-2-(2-(2-(azetidin-1-yl)thiazol-5-yl)acetamido)propanamido)-N—((S)-3-(cyclopent-1-en-1-yl)-1-((R)-2-methyloxiran-2-yl)-1-oxopropan-2-yl)-3-(4-methoxyphenyl)propanamide] displayed a solubility in the data set “Solubility pH 7” of 54.6 µg/mL (≈ 87.5 µM). On the same count and under the same terms, as for `COc1ccc(C[C@H](NC(=O)[C@H](C)NC(=O)Cc2cnc(N3CCCC3)s2)C(=O)N[C@@H](CC2=CCCC2)C(=O)[C@@]2(C)CO2)cc1` [Compound C-2069, (S)—N—((S)-3-(cyclopent-1-en-1-yl)-1-((R)-2-methyloxiran-2-yl)-1-oxopropan-2-yl)-3-(4-methoxyphenyl)-2-((S)-2-(2-(2-(pyrrolidin-1-yl)thiazol-5-yl)acetamido)propanamido)propanamide], the figure is 26.6 µg/mL (≈ 41.7 µM); as for `COc1ccc(C[C@H](NC(=O)[C@H](C)NC(=O)Cc2cnc(N)o2)C(=O)N[C@@H](CC2=CCCC2)C(=O)[C@@]2(C)CO2)cc1` [Compound C-2070, (S)-2-((S)-2-(2-(2-aminooxazol-5-yl)acetamido)propanamido)-N—((S)-3-(cyclopent-1-en-1-yl)-1-((R)-2-methyloxiran-2-yl)-1-oxopropan-2-yl)-3-(4-methoxyphenyl)propanamide], 1020 µg/mL (≈ 1800 µM).

In turn, `COc1ccc(C[C@H](NC(=O)[C@@]2(CO)CCCN2)C(=O)N[C@@H](Cc2ccccc2)C(=O)[C@@]2(C)CO2)cc1` [Compound C-3005] came in with a solubility in the data set “Solubility pH 7” of 1920 µg/mL (≈ 3760 µM). Still for that read-out and setting: as for `COc1ccc(C[C@H](NC(=O)C(C)(C)N)C(=O)N[C@@H](Cc2ccccc2)C(=O)[C@@]2(C)CO2)cc1` [Compound C-3006, 2-Amino-N—((S)-3-(4-methoxyphenyl)-1-(((S)-1-((R)-2-methyloxiran-2-yl)-1-oxo-3-phenylpropan-2-yl)amino)-1-oxopropan-2-yl)-2-methylpropanamide], the figure is 385 µg/mL (≈ 823 µM).
